According to US20250092017A1, “2-PIPERIDYL OR 2-PYRAZOLYL SUBSTITUTED PYRIMIDINE COMPOUND SERVING AS EGFR INHIBITOR” (SUZHOU PUHE BIOPHARMA CO., LTD., priority 2022, published 2025):
Where two headings read alike, the source gives them in different places.

What was measured:
EGFR (L858R/C797S) = EGFR (L858R/C797S) (Homo sapiens, UniProt P00533, C797S/L858R); assay: MSA (Mobility Shift Assay) kinase activity, EGFR-L858R-C797S; type: biochemical
Description: (§1) The MSA (Mobility Shift Assay) method was used to detect the effects of small molecule inhibitors on the kinase activity of EGFR wild type and its mutants (EGFR^wt, EGFR-L858R, EGFR-L858R-T790M-C797S, EGFR-L858R-C797S).
(§2) 10 μL of kinase solution at 2.5 times the final concentration was added to the compound wells and positive control Max wells; 10 μL of 1x kinase buffer was added to the negative control Min wells. The mixture was centrifuged at 1000 rpm for 30 seconds, and the reaction plate was shaken to mix the solution well and then incubated at room temperature for 10 minutes. A mixed solution of ATP and kinase substrate at 5/3 times the final concentration was prepared in 1x kinase buffer. 15 μL of a mixed solution of ATP and substrate at 5/3 times the final concentration was added to initiate the reaction. The 384-well plate was centrifuged at 1000 rpm for 30 seconds, and shaken to mix the solution well and then incubated at room temperature for the corresponding time. 30 μL of stop detection solution was added to stop the kinase reaction, and the mixture was centrifuged at 1000 rpm for 30 seconds, and then to mixed well by shaking. The conversion rate was read using Caliper EZ Reader.
(§3) wherein: Conversion %_sample is the conversion rate reading of the sample; Conversion %_min is the mean of the negative control wells, representing the conversion rate reading of the wells without enzyme activity; Conversion %_max is the mean of the positive control wells, representing the conversion rate reading of the wells without compound inhibition.
(§4) The log (inhibitor) vs. response —Variable slope of the analysis software GraphPad Prism 5 was used to fit the dose-effect curve, where the log value of the concentration was used as the X-axis and the percentage inhibition rate was used as the Y-axis, to obtain the IC50 value of each compound on the enzyme activity.
(§5) The calculation formula is Y=Bottom+(Top-Bottom)/(1+10^((Log IC50−X)*Hill Slope))

[1] = tested on: Ba/F3-FL-EGFR-del19-C797S; assay: CellTiter-Glo proliferation, Ba/F3-FL-EGFR-del19-C797S; type: cell-based; settings: proliferation, 72 hours, CellTiter-Glo, read-out: Ba/F3-FL-EGFR-del19-C797S IC50/nM
Description: Promega CellTiter-Glo reagent was used to detect the effects of small molecule inhibitors on the proliferation of five Ba/F3 cell lines (Ba/F3-FL-EGFR, Ba/F3-FL-EGFR-L858R, Ba/F3-FL-EGFR-L858R-T790M-C797S, Ba/F3-TEL-EGFR-L858R-C797S and Ba/F3-FL-EGFR-del19-C797S).
The cell lines were cultured in an incubator at 37° C. and 5% CO2. Cells were passaged regularly and cells in the logarithmic phase were used for plating. 95 μL of cell suspension was added to each well of the cell plate, and culture medium without cells (containing 0.1% DMSO) was added to the Min control wells. Substance addition for compound detection cell plate: 5 μL of 20× compound working solution was added to the cell culture plate as shown in the table below. 50 μL of DMSO-cell culture medium mixture was added to the Max control, with the final DMSO concentration of 0.1%. 5 μL of DMSO-cell culture medium mixture was added to the Max control. The final DMSO concentration was 0.1%.
The compounds to be tested were added as per the table below
Cell viability was detected by CellTiter-Glo luminescence assay. Data analysis:
The cell proliferation inhibition rate (Inhibition Rate) data was processed using the following formula: […]
wherein: RLUDrug represents the relative luminescence unit of the cells with the addition of drug, RLUMin represents the luminescence unit of the culture medium, and RLUMax represents the relative luminescence unit of the cells with the addition of DMSO.
The inhibition rates corresponding to different concentrations of compounds were calculated in EXCEL, and then the inhibition rate curve was plotted using GraphPad Prism software and related parameters including the maximum and minimum inhibition rates of cells and IC50 values were calculated.

EGFR (wild-type) = EGFR (wild-type) (Homo sapiens, UniProt P00533); assay: MSA (Mobility Shift Assay) kinase activity, EGFR wild type; type: biochemical; settings: read-out: EGFR wt/ IC50/nM
Description: as §1, §2, §3, §4, §5

Ba/F3-FL-EGFR = target: T1, Ba/F3-FL-EGFR (Homo sapiens, UniProt P00533); assay: CellTiter-Glo proliferation, Ba/F3-FL-EGFR; type: cell-based; settings: 72 hours, read-out: Ba/F3-FL-EGFR IC50/nM
T1 construct: FL read as full length
Procedure, shortened: (§6)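 Ba/F3 lines dependent on the indicated EGFR variants were treated with compounds at a final DMSO concentration of 0.1% at 37 °C, 5% CO2. Viability was read by CellTiter-Glo luminescence, and inhibition rate was normalised to DMSO-treated cells (max) and medium-only wells (min). IC50 came from inhibition curves.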

[2] = target: T2, Ba/F3-TEL-EGFR-L858R-C797S (Homo sapiens, UniProt P00533, C797S/L858R, cells depend on it); assay: CellTiter-Glo proliferation, Ba/F3-TEL-EGFR-L858R-C797S; type: cell-based; settings: 72 hours, read-out: Ba/F3-TEL-EGFR-L858R-C797S IC50/nM
T2 construct: fused on or other part: N-terminal TEL (ETV6) oligomerising part fused to the EGFR intracellular/kinase part; P41212 (Transcription factor ETV6)
Procedure, shortened: as §6

[3] = target: Ba/F3-FL-EGFR-L858R-T790M-C797S (Homo sapiens, UniProt P00533, T790M/C797S/L858R, cells depend on it); assay: CellTiter-Glo proliferation, Ba/F3-FL-EGFR-L858R-T790M-C797S; type: cell-based; settings: 72 hours, read-out: Ba/F3-FL-EGFR-L858R-T790M-C797S IC50/nM
Procedure, shortened: as §6

EGFR (L858R/T790M/C797S) = EGFR (L858R/T790M/C797S) (Homo sapiens, UniProt P00533, C797S/L858R/T790M); assay: MSA (Mobility Shift Assay) kinase activity, EGFR-L858R-T790M-C797S; type: biochemical
Description: as §1, §2, §3, §4, §5

EGFR (L858R) = EGFR (L858R) (Homo sapiens, UniProt P00533, L858R); assay: MSA (Mobility Shift Assay) kinase activity, EGFR-L858R; type: biochemical
Description: as §1, §2, §3, §4, §5

Ba/F3-FL-EGFR-L858R = Ba/F3-FL-EGFR-L858R (Homo sapiens, UniProt P00533, L858R, cells depend on it); assay: CellTiter-Glo proliferation, Ba/F3-FL-EGFR-L858R; type: cell-based; settings: 72 hours, read-out: Ba/F3-FL-EGFR-L858R IC50/nM
Procedure, shortened: as §6

Chain of Ba/F3-FL-EGFR-L858R-T790M-C797S (P00533 whole entry T790M/C797S/L858R): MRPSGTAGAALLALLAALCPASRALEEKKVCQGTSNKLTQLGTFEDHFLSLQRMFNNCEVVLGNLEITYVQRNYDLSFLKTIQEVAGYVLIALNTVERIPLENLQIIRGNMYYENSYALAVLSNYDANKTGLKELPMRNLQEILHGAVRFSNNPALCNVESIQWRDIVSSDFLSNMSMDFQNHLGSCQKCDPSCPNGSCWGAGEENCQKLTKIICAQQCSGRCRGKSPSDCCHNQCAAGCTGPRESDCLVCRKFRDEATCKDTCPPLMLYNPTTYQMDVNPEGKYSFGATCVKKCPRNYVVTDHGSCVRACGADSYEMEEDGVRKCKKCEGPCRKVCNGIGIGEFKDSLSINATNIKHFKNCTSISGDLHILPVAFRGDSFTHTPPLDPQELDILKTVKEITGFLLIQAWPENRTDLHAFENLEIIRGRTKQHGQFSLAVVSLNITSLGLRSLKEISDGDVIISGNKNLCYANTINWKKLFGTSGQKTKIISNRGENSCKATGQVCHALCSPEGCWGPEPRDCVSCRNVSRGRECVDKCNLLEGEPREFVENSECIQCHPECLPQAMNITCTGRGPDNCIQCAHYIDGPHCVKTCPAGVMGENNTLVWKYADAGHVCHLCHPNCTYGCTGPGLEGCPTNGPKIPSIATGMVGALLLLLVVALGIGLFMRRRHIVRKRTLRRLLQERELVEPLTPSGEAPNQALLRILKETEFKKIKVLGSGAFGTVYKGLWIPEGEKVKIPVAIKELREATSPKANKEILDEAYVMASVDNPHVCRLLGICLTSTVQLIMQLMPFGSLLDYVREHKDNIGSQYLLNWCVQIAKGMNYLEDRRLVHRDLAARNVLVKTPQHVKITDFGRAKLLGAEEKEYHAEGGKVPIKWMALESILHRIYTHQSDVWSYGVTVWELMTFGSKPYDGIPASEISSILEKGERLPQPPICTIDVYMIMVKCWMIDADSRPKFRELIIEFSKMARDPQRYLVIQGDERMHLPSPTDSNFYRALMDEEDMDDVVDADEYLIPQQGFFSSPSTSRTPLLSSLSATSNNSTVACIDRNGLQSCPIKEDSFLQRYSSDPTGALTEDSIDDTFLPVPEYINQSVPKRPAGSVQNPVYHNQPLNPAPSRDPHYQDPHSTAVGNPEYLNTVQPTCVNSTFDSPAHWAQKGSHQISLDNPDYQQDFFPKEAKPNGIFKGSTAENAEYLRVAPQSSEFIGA
Chain of EGFR (wild-type) (P00533 25-1210): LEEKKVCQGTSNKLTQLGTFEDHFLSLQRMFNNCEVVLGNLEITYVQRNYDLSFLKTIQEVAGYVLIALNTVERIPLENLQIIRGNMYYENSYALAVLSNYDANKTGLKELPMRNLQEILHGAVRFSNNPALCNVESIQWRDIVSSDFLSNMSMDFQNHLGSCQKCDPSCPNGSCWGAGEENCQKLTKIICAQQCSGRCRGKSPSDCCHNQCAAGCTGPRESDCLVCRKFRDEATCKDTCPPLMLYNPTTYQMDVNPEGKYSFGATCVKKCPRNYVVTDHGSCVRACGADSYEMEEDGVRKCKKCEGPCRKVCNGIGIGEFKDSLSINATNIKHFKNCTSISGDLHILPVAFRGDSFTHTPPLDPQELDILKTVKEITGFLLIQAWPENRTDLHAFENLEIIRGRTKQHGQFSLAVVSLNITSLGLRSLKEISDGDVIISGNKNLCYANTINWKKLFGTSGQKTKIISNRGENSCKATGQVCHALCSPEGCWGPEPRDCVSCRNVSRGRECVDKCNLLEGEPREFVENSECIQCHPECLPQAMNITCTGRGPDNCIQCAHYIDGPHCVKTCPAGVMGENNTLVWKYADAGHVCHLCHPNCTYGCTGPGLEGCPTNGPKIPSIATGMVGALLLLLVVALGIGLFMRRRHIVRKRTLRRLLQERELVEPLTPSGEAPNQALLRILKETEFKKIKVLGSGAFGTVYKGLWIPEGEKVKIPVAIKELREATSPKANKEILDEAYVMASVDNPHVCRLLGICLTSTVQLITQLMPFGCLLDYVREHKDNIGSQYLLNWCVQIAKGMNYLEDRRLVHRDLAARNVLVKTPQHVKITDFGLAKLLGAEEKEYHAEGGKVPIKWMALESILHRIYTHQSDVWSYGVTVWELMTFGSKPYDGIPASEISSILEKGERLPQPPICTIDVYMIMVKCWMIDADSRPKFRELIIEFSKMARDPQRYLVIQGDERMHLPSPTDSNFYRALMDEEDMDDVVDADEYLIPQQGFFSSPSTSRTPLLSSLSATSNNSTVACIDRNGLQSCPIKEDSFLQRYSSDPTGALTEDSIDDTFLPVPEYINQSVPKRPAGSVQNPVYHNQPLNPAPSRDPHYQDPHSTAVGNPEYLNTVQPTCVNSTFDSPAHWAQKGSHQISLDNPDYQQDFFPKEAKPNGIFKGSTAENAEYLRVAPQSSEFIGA
T2 sequence (P00533 whole entry C797S/L858R, the tested form may be a part): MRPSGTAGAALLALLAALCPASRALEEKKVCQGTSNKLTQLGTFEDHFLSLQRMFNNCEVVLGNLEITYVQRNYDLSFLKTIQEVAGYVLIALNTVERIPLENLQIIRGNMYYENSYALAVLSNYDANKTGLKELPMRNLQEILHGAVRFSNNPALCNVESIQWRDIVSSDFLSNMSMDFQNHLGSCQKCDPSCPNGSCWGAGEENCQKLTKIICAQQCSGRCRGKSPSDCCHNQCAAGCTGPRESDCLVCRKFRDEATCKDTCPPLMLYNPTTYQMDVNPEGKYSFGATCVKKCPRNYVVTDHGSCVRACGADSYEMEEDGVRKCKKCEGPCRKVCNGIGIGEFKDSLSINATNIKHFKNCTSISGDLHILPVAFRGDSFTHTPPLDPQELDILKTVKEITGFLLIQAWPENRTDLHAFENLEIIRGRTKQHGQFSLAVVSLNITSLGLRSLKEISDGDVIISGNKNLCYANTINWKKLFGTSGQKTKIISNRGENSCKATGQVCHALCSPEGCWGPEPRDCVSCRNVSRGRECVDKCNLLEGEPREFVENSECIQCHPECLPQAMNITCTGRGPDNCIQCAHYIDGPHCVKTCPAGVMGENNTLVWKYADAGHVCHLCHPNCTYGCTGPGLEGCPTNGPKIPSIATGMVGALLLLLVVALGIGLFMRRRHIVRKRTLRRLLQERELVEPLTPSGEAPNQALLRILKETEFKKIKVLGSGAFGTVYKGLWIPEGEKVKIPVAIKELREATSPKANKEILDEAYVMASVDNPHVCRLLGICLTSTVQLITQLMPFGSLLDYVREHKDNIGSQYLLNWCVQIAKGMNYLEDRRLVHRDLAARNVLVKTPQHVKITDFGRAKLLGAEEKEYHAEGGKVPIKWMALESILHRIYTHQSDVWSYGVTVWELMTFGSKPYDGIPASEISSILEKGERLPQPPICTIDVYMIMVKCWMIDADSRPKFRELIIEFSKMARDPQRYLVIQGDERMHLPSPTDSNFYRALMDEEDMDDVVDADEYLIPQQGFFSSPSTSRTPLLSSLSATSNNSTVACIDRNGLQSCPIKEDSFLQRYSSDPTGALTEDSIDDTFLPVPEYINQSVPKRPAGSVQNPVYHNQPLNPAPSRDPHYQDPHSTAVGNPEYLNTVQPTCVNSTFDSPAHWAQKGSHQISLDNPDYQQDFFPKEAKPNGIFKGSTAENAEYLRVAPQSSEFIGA
Chain of EGFR (L858R/C797S) (P00533 25-1210 C797S/L858R): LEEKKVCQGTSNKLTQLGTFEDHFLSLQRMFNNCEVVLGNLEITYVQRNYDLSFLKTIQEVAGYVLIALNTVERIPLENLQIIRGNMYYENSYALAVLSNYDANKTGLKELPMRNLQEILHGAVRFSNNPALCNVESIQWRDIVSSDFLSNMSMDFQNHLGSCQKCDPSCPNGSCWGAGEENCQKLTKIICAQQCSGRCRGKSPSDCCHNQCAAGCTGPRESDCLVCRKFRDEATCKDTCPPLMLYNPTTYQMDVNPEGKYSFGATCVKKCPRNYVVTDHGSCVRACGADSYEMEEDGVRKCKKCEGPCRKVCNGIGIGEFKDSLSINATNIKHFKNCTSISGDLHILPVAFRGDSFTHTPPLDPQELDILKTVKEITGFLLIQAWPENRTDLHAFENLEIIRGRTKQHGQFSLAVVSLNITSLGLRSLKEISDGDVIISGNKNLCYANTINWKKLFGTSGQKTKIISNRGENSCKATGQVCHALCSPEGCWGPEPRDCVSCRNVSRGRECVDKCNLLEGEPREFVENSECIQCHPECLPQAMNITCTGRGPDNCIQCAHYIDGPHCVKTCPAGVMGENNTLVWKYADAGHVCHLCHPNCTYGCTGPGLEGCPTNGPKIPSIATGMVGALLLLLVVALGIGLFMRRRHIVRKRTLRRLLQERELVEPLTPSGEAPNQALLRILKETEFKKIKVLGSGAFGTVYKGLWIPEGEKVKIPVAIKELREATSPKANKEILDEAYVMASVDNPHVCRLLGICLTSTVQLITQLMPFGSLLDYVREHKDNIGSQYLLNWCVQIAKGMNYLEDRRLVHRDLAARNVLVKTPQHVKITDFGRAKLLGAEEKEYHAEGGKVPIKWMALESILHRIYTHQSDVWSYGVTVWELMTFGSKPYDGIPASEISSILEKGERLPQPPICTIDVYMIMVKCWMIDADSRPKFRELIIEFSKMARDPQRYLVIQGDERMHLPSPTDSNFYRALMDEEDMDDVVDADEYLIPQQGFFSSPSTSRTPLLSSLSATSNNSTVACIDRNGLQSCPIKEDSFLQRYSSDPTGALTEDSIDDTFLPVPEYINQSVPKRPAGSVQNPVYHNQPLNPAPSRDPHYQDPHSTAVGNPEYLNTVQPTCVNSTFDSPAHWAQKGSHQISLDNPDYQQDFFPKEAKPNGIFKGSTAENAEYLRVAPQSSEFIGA

| IC50 (EGFR (L858R/C797S)) | IC50 [1] | IC50 (EGFR (wild-type)) | GI50 (Ba/F3-FL-EGFR) | GI50 [2] | GI50 [3] | IC50 (EGFR (L858R/T790M/C797S)) | IC50 (EGFR (L858R)) | IC50 ([1]; 72 h) | GI50 (Ba/F3-FL-EGFR-L858R) | SMILES |
| --- | --- | --- | --- | --- | --- | --- | --- | --- | --- | --- |
| 22 nM | – | 50.5 nM | 7380 nM | 271 nM | 554 nM | 0.21 nM | 14 nM | – | 771 nM | CC(C)c1ccc(N2CC(CC(N)=O)C2)c2cnc(Nc3ccnc(N4CCC(O)C(F)C4)n3)cc12 (centres unmarked) [Compound P7] |
| 1.22 nM | – | 5.1 nM | 618 nM | 15 nM | 11 nM | 0.08 nM | 0.77 nM | 71 nM | 42 nM | CC(C)c1ccc(N2C[C@H](NS(C)(=O)=O)[C@H]2C)c2cnc(Nc3ccnc(N4CCC(O)C(F)C4)n3)cc12 (some centres unmarked) [Compound P25] |
| 7.6 nM | – | 20.7 nM | 2780 nM | 61 nM | 38 nM | 0.18 nM | 4.1 nM | 265 nM | 181 nM | CC(C)c1ccc(N2CC(NS(C)(=O)=O)C2)c2cnc(Nc3ccnc(N4CCC(O)C(C)(F)C4)n3)cc12 (centres unmarked) [Compound P45] |
| 9.3 nM | 308 nM | 41.8 nM | 3110 nM | 88 nM | 271 nM | 0.61 nM | 6.2 nM | – | 208 nM | CC(C)c1ccc(N2CC(NS(C)(=O)=O)C2)c2cnc(Nc3ccnc(N4CCC(O)C(C)(F)C4)n3)cc12 (centres unmarked) [Compound P46] |
| 4.2 nM | – | 13.4 nM | 1750 nM | 28 nM | 63 nM | 0.12 nM | 2.5 nM | 181 nM | 86 nM | CC(C)c1ccc(N2CC(NS(C)(=O)=O)C2)c2cnc(Nc3ccnc(N4CCC(C)(O)C(F)C4)n3)cc12 (centres unmarked) [Compound P51] |

Continued, molecule first:

| SMILES | IC50 (EGFR (L858R/C797S)) | IC50 [1] | IC50 (EGFR (wild-type)) | GI50 (Ba/F3-FL-EGFR) | GI50 [2] | GI50 [3] | IC50 (EGFR (L858R/T790M/C797S)) | IC50 (EGFR (L858R)) | IC50 ([1]; 72 h) | GI50 (Ba/F3-FL-EGFR-L858R) |
| --- | --- | --- | --- | --- | --- | --- | --- | --- | --- | --- |
| CC(C)c1ccc(N2CC(CS(C)(=O)=O)C2)c2cnc(Nc3ccnc(-c4cn[nH]c4)n3)cc12 [Compound H3] | 4.7 nM | 216 nM | 11.7 nM | 854 nM | 188 nM | 462 nM | 0.7 nM | 5.6 nM | – | – |
| CCCS(=O)(=O)n1cc(-c2nccc(Nc3cc4c(C(C)C)ccc(N5CC(CS(C)(=O)=O)C5)c4cn3)n2)cn1 [Compound H6] | 2.2 nM | 48 nM | 5.2 nM | 559 nM | 40 nM | 90 nM | 0.3 nM | 1.5 nM | – | – |
| CC(C)c1ccc(N2CC(CS(C)(=O)=O)C2)c2cnc(Nc3ccnc(-c4cnn(S(=O)(=O)C5CCOCC5)c4)n3)cc12 [Compound H10] | 7.2 nM | – | 30.3 nM | 1080 nM | 54 nM | 219 nM | 0.34 nM | 8.1 nM | 101 nM | 94 nM |
| CC(C)c1ccc(N2CC(CS(C)(=O)=O)C2)c2cnc(Nc3ccnc(-c4cnn(CC(F)(F)F)c4)n3)cc12 [Compound H11] | 5.1 nM | – | 24.3 nM | > 10000 nM | 37 nM | 123 nM | 0.44 nM | 5.8 nM | 97 nM | 40 nM |
| CC(C)c1ccc(N2CC(CS(C)(=O)=O)C2)c2cnc(Nc3ccnc(-c4cnn(S(=O)(=O)C5CCC5)c4)n3)cc12 [Compound H13] | 2.5 nM | – | 11.4 nM | 640 nM | 18 nM | 158 nM | 0.91 nM | 1.8 nM | 23 nM | 44 nM |
| CC(C)c1ccc(N2CC(CS(C)(=O)=O)C2)c2cnc(Nc3ccnc(-c4cnn(S(=O)(=O)C5(C)CC5)c4)n3)cc12 [Compound H18] | 5 nM | – | 7.3 nM | 658 nM | 46 nM | 150 nM | 0.6 nM | 2.6 nM | 69 nM | 73 nM |
| CC(C)c1ccc(N2CC(CS(C)(=O)=O)C2)c2cnc(Nc3ccnc(N4CCC(O)C(F)C4)n3)cc12 (centres unmarked) [Control A, reference compound] | 11 nM | – | 30.2 nM | 2020 nM | 52 nM | 38 nM | 0.19 nM | 7.1 nM | – | 176 nM |
